From patent publication US6054282A, “Method for detecting biological interactions especially in receptor binding assays” (Zeneca Limited, priority 1993, dated 2000)

Tested on: human calcitonin receptor
Assay: Calcitonin receptor radial partition binding assay, displacement of (3-[125I]iodotyrosyl-22) salmon calcitonin
Conditions: 1 micromolar salmon calcitonin; MEL cell membranes with cloned human calcitonin receptor; room temperature, 40 minutes; FIG. 3
Method: The lysate was transferred to a glass/Teflon homogeniser and given 10 strokes to ensure cell disruption. The homogenate was centrifuged at 3,000 rpm (1100 g) for 10 minutes at 4 deg.C. […] The low-speed supernatant was removed, and the pellet re-suspended in 10 ml of homogenisation buffer and dispersed with 3×10 second treatments with the Polytron homogeniser, followed by low-speed centifugation as described above. The supernatants from both spins were combined. This was then centrifuged for 30 minutes at 33,000 rpm (100,000 g) at 4 deg C. in an L7 Ultracentrifuge (Beckman) using a Ti75 head. The pellet was re-suspended in 20 mM HEPES, pH 7.4, and re-centrifuged. This pellet was then re-suspended as before and treated with 10 strokes of the glass/Teflon homogeniser.
Protein determination was by the […] method of the Pierce Chemical Co., using their recommended protocol and bovine serum albumin (BSA) as a standard. Membranes were diluted to a stock concentration of 0.08 mg/ml protein, and stored at -70 deg. C.
To a 30×43 cm glass fibre filter mat (Tomtec RG) was added 4 microlitres of receptor preparation to 2,304 positions in a rectangular array. This was allowed to dry for 2 hours at room temperature. […]
The mat was allowed to dry completely and was exposed to a storage phosphor screen (Molecular Dynamics) for 3 hours and analysed using a PhosphorImager SF (Molecular Dynamics).

calcitonin [salmon calcitonin]
inhibition of binding of [125I] salmon calcitonin (central spot, PhosphorImager): full inhibition of binding
